The nature of the data set: solvent given as SMILES.

`COc1ccc(C2CC(c3ccc(O)cc3)=NN2c2ccc(S(N)(=O)=O)cc2)cc1` (stereo unspecified): the emission maximum reads like this: (in C1CCOC1) 417 nm; (in C1COCCO1) 418 nm; (in CC#N) 418 nm; (in CC(C)O) 423 nm; (in CCO) 429 nm; (in CCOC(C)=O) 416 nm. Further, the emission maximum is listed as 422 nm (in CN(C)C=O), 432 nm (in CO), 425 nm (in CS(C)=O) and 448 nm (in O).

Take `O=C1/C(=C2\Sc3ccc(S(=O)(=O)Cl)cc3C2=O)Sc2ccc(S(=O)(=O)Cl)cc21`: the emission maximum reads like this: (in C1COCCO1) 576 nm; (in CS(C)=O) 624 nm.

On to `c1ccc(-c2nc(-c3ccc(-c4ccc(-c5nc(-c6ccccc6)c(-c6ccccc6)o5)cc4)cc3)oc2-c2ccccc2)cc1`, for which the emission maximum (in C1COCCO1) was determined as 428 nm.

`N#CC(C#N)=Cc1ccc(-c2ccc(N(c3ccccc3)c3ccccc3)cc2)s1` yielded an emission maximum (in ClC(Cl)Cl) of 634 nm.

As for `CN(C)c1ccc(C2=Nc3scc(-c4ccc(N(C)C)cc4)[n+]3[B-](F)(F)O2)cc1`, the emission maximum (in C1CCOC1) came to 616 nm, the emission maximum (in Cc1ccccc1) came to 518 nm and the emission maximum (in ClCCl) was 590 nm.

As for `CC(C)(C)c1cc(-c2ccc3c(-c4cc(C(C)(C)C)cc(C(C)(C)C)c4)cc4c5cc(-c6cc(C(C)(C)C)cc(C(C)(C)C)c6)ccc5c(-c5cc(C(C)(C)C)cc(C(C)(C)C)c5)cc4c3c2)cc(C(C)(C)C)c1`, the emission maximum (in ClCCl) worked out at 401 nm.

Regarding `Cc1ccc2cc3c(=O)n(C)c(=O)n(C)c3nc2c1`, the emission maximum runs as follows: (in CC#N) 405 nm; (in CC(C)O) 408 nm; (in CCO) 409 nm; (in CO) 409 nm; (in ClC(Cl)Cl) 406 nm; (in ClCCl) 405 nm.

For the compound `CN(C)c1ccc(C2=C3C=C(c4ccc(C=C(C#N)C#N)cc4)S[C@]34c3ccccc3[C@H]2c2ccccc24)cc1`, for the setting “in ClCCl”, the emission maximum is reported as 748 nm.

For the compound `c1ccc(Nc2nc(Nc3ccccc3)nc(Nc3ccc4c5cccc6cccc(c7cccc3c74)c65)n2)cc1`, the emission maximum by setting is: (in C1COCCO1) 487 nm; (in CC#N) 492 nm; (in CCCCOCCCC) 486 nm; (in CCOC(C)=O) 488 nm.

Regarding `O=C1c2ccccc2-c2nc3ccccc3n21`, for the setting “in ClCCl”, the emission maximum came out at 519 nm.

Take `NC(=O)C1=CN([C@H]2C[C@H](O)[C@@H](COP(=O)([O-])OP(=O)([O-])OC[C@H]3O[C@@H](n4cnc5c(N)ncnc54)C[C@@H]3O)O2)C=CC1`: for the setting “in O”, the emission maximum is given as 450 nm.

As to `CC1(C)c2ccccc2N(c2cc[n+]3c(c2)-c2ccccc2O[B-]3(F)F)c2ccccc21`, the emission maximum is, setting by setting: (in Cc1ccccc1) 540 nm; (in O=P(c1ccccc1)(c1ccccc1)c1ccccc1Oc1ccccc1P(=O)(c1ccccc1)c1ccccc1) 542 nm.

`CCCCn1c(-c2ccc(-c3nnc(-c4ccc(-c5nc(-c6ccccc6)c(-c6ccccc6)n5CCCC)cc4)o3)cc2)nc(-c2ccccc2)c1-c1ccccc1` gave an emission maximum (in ClCCl) of 445 nm.

Under “in ClCCl”, `CC1=c2ccccc2=[N+]2C1=Cc1c3ccccc3c(-c3[nH]c4ccccc4c3C)n1[B-]2(F)F` yielded an emission maximum of 648 nm.

`FC(F)(F)c1ccc(C2=Cc3ccccc3[Si]2(c2ccccc2)c2ccccc2)cc1` came in with an emission maximum (in ClCCl) of 401 nm.

The compound `c1ccc(N(c2ccccc2)c2ccc(-c3ccc4c(c3)C3(c5cc(-c6ccc(N(c7ccccc7)c7ccccc7)cc6)ccc5S4)c4ccccc4-c4ccccc43)cc2)cc1` had an emission maximum (in CC(C)=O) of 414.99 nm; an emission maximum (in CCCCCC) of 392.96 nm; an emission maximum (in CN(C)C=O) of 421.13 nm; an emission maximum (in Cc1ccccc1) of 398.74 nm; an emission maximum (in ClCCl) of 410 nm.

In turn, `Cc1ccc(N2C(c3ccccc3N(C)C)=NC(c3ccccc3)C2c2ccccc2)cc1` (stereo unspecified) returned an emission maximum (in Cc1ccccc1) of 422 nm.

Regarding `CCCCCCC(CCCCCC)N1C(=O)c2cccc3c(-c4ccc(OC)c5ccccc45)ccc(c23)C1=O`, the emission maximum is listed as 427.1 nm (in CCCCCC); 431.7 nm (in CCCCCCCCCCCCCC); 532.4 nm (in CCCCCCCCCCCO); 576.8 nm (in CCCCO); 581.8 nm (in CN(C)C=O); 478 nm (in Cc1ccccc1). Also, where the note is “in ClC(Cl)Cl”, the emission maximum worked out at 509.7 nm.

`CC1(C)CC[N+]2=c3c(cc4c(c31)Oc1cc3c(cc1C=4c1ccccc1C(=O)O)C(c1ccccc1C(=O)O)=c1cc4c5c(c1O3)C(C)(C)CC[N+]=5CCC4)CCC2`: the emission maximum (in ClC(Cl)Cl) was 635 nm.

In turn, `CN(C)c1ccc(/C=C/c2cc[n+](C)c3ccccc23)cc1` yielded an emission maximum (in CC#N) of 703 nm, an emission maximum (in ClCCl) of 680 nm and an emission maximum (in O) of 698 nm.

On to `Nc1cc2nc3cc(F)c(F)cc3nc2cc1N`, for which the emission maximum (in CCO) was 537 nm.

`COc1ccc(/C=C/c2ccc(/C=C/c3cc[n+]4ccc(/C=C/c5ccc(/C=C/c6ccc(OC)cc6)cc5)cc4c3)cc2)cc1`: the emission maximum (in CO) is on record as 620 nm.

Consider `Cc1cc(C)c(B(c2ccsc2-c2sccc2P(=O)(c2ccccc2)c2ccccc2)c2c(C)cc(C)cc2C)c(C)c1`, for which, under “in CO”, the emission maximum came to 512 nm.

Take `Cc1c2c(c(C)c3ccccc13)-c1cc3nc4ccccc4nc3cc1-2`: the emission maximum (in ClC(Cl)Cl) is 454 nm.

`COOCc1noc(-c2ccccc2)c1Br` gave an emission maximum (in C1CCCCC1) of 345 nm.

Regarding `CCN(CC)c1ccc2cc(-c3ccc(-c4ccc(-c5cc6ccc(N(CC)CC)cc6oc5=O)cc4)cc3)c(=O)oc2c1`, the emission maximum (in ClCCl) was 484 nm.

In the case of `F[B-]1(F)N(c2ccccc2)c2cccc3ccc4ccc[n+]1c4c23`, the emission maximum (in ClCCl) was 584 nm.

In the case of `CC(C)(C)c1ccc(-n2c(-c3ccc(-c4cccc(-c5c(-c6ccccc6)nc6ccccn56)c4)cc3)nc3c4ccccc4c4ccccc4c32)cc1`, where the note is “in ClCCl”, the emission maximum amounted to 417 nm.

Take `Cn1cc(-c2nc3ccccc3nc2C#Cc2ccc(C#N)cc2)c2ccccc21`: under “in ClCCl”, the emission maximum came out at 520 nm.

For `CCn1c2ccccc2c2cc(/C=C/c3cc(/C=C/c4ccc5c(c4)c4ccccc4n5CC)ncn3)ccc21`, the emission maximum runs as follows: (in C1CCOC1) 463 nm; (in CCOC(C)=O) 460 nm; (in CN(C)C=O) 500 nm; (in Cc1ccccc1) 440 nm; (in ClCCl) 492 nm.

Take `COc1ccc2c3c(c4ccc(OC)cc4c2c1)C1(c2ccccc2-c2ccccc21)c1ccccc1-3`: for the setting “in C1CCCCC1”, the emission maximum amounted to 389 nm.

For `CCN(CC)c1c2ccc(=[N+]3CCCCC3)cc-2oc2cc(N3CCCCC3)ccc12`, the emission maximum (in ClCCl) was 558 nm.

As for `CC1=CC(C)=[N+]2C1=C(c1c3ccccc3c(C)c3ccccc13)c1c(C)cc(C)n1[B-]2(F)F`, the emission maximum reads like this: (in CC#N) 518 nm; (in CCCCCC) 512 nm; (in CCO) 516 nm; (in CN(C)C=O) 519 nm; (in Cc1ccccc1) 517 nm; (in ClCCl) 519 nm.

For the compound `CCN(CC)c1ccc(-c2nc(Oc3ccc(-c4nc5ccccc5s4)cc3)nc(Oc3ccc(-c4nc5ccccc5s4)cc3)n2)cc1`, the emission maximum (in CN(C)C=O) is reported as 419 nm.

As to `Cc1c(COC(=O)Cc2c[nH]c3ccccc23)n2c(OCC(=O)Cc3c[nH]c4ccccc34)c(C)c(=O)n2c1=O`, the emission maximum (in CCO) was 452 nm.

For `[O-][n+]1c(/C=C/c2cccs2)nc(N2CCOCC2)c2c1CCCC2`, the emission maximum (in ClCCl) was 534 nm.

`CC1=CC(/C=C/c2ccc(C)cc2)=[N+]2C1=C(c1ccccc1)c1c(C)cc(/C=C/c3ccc(C)cc3)n1[B-]2(F)F` registered an emission maximum (in CC1CCCO1) of 645 nm.

For the compound `CC(C)(C)c1cc(C(C)(C)C)c(-c2nnc(-c3ccc(-n4c5ccccc5c5ccccc54)cc3)o2)c(C(C)(C)C)c1`, the emission maximum by setting is: (in CCO) 432 nm; (in Cc1ccccc1) 376 nm.

For the setting “in C1CCOC1”, `c1ccc2c(c1)-c1ccccc1C21c2ccccc2-c2c1c1c3ccccc3ccc1c1ccccc21` came in with an emission maximum of 417 nm.

In the case of `CCOC(=O)CC[N+]1=c2cc3c(cc2CCC1)=Cc1c(c2cc4c5c(c2oc1=O)CCCN5CCC4)O3`, the emission maximum by setting is: (in CC#N) 687 nm; (in CO) 681 nm; (in ClCCl) 676 nm; (in O) 688 nm.

For the setting “in ClCCl”, `CC(C)(C)c1ccc(-c2cc(-c3ccc(-c4cc(-c5ccc(C(C)(C)C)cc5)c(C(=O)NCc5cccs5)s4)s3)sc2C(=O)NCc2cccs2)cc1` displayed an emission maximum of 450 nm.

Consider `CCN(CC)c1ccc(/C=N/Nc2ccc(C#N)cc2)c(O)c1`, for which the emission maximum was determined as 418 nm (in CC#N); 403 nm (in CCCCCC); 430 nm (in CO); 422 nm (in CS(C)=O); 410 nm (in ClC(Cl)Cl).

`COC1=[N+]2C(=C(c3ccccc3)c3ccc(OC)n3[B-]2(F)F)C=C1SC#N` came in with an emission maximum (in CC#N) of 539 nm; an emission maximum (in CCCCCC) of 542 nm; an emission maximum (in CCOC(C)=O) of 543 nm; an emission maximum (in CO) of 540 nm; an emission maximum (in ClCCl) of 543 nm.

With `CC(C)[Si](C#Cc1c2ccccc2c(C#C[Si](C(C)C)(C(C)C)C(C)C)c2nc3c(nc12)C1c2ccccc2C3c2ccccc21)(C(C)C)C(C)C`, the emission maximum (in CCCCCC) amounted to 464 nm.

As for `C(=C\c1ncc2ccccc2n1)/c1ccc(N(c2ccccc2)c2ccccc2)cc1`, the emission maximum runs as follows: (in C1CCCCC1) 449 nm; (in C1CCOC1) 498 nm; (in CC#N) 543 nm; (in CS(C)=O) 547 nm; (in ClCCl) 520 nm.

For `CCOC(=O)c1cc(C(=O)OCC)c2cc(O)ccc2n1`, for the setting “in CCO”, the emission maximum came to 466 nm.

For `CCC1(CC)c2cc(C=O)ccc2-c2ccc(N(C)C)cc21`, the emission maximum reads like this: (in C1CCCCC1) 416 nm; (in CC#N) 521 nm; (in CCO) 562 nm; (in CCOCC) 436 nm; (in CS(C)=O) 532 nm; (in ClCCl) 491 nm. The emission maximum (in c1ccccc1) amounted to 437 nm.

The values above are taken from the Deep4Chem optical property database.
